# Data from patent publication US20100331233A1, “CRYSTAL OF XPA AND ERCC1 COMPLEX AND USES THEREOF” (priority 2007, published 2010).
# Entries after “also recorded” stand apart in the source; their conditions may differ. No end group written: not given here.
# Biological target: T1, central domain of ERCC1 (ERCC196-214) (Homo sapiens, UniProt P07992)
# T1 construct: His6 (N); made in house; host or cells: E. coli BL21(DE3)
# T1 sequence (P07992 96-214): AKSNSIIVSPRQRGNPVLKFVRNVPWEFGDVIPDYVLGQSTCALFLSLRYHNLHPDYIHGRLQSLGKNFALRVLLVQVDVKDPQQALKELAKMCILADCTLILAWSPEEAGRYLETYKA
# Test: Competitive binding equilibrium titrations, fluorescence anisotropy of 6FAM-labeled single-stranded 40mer DNA
# Experimental: Binding of a 6FAM-labeled single-stranded DNA 40mer to the central domain of ERCC1 was monitored by fluorescence polarization of the labeled DNA. DNA binding activity is plotted as a function of added XPA67-80 inhibitor. The theoretical curve given by Eq. 9 (solid line) corresponds to the best fit of the data to the dissociation equilibrium constant of 300 nM for the ERCC1-XPA complex.
# Competitive binding equilibrium titrations. The equilibrium titrations were performed in a binding buffer containing 20 mM Tris, pH 8.0, 20 mM NaCl, 2 mM betamercaptoethanol. The concentrations of single-stranded 5′ 6-FAM-labeled DNA (5′-CCGGTGGCCAGCGCTCGGCG(T)20; SEQ ID NO:9) and ERCC196-214 were 50 nM and 2.33 μM, respectively, the concentration of the XPA peptide was varied from 0 to 30 μM (FIG. 7). Fluorescence anisotropy measurements were performed as previously reported (Tsodikov et al., 2005). Increasing XPA peptide concentration above 30 μM caused an increase in fluorescence anisotropy and quenching of fluorescence due to nonspecific interactions with the peptide, observed in the presence or absence of ERCC1 (data not shown).
# The simplest binding model used in the data analysis consisted of two competitive equilibria, binding of XPA peptide and of the single-stranded 6FAM-labeled 40-mer DNA to the central domain of ERCC1. This model is consistent with the fact that at sufficiently high XPA concentration, the fluorescence anisotropy signal approaches that of unbound DNA. Therefore the two binding equilibria could be written as:
# where E, D, X represent the ERCC1, DNA and XPA species, respectively. ED and EX represent ERCC1-DNA and ERCC1-XPA complexes, and KDNA and KXPA are the observed equilibrium association constants, defined in terms of the equilibrium concentrations of the species from Eqs. (2a) and (2b) as:
# The approximation made in Equation (4b) is due to the large excess of ERCC1 over DNA at the experimental conditions. It was assumed that each single-stranded 40-mer DNA oligonucleotide contains only one binding site for ERCC1. Because the central domain of ERCC1 occludes 10-15 nucleotides upon binding DNA (1), with a reasonable approximation, a maximum of 2-3 ERCC1 molecules could simultaneously bind to one DNA molecule without significant cooperativity. In this analysis, a value of (KDNA)−1=1.5 μM was used, obtained from the direct titration of ERCC1 at constant concentration (50 nM) of the same DNA oligomer, using the same single site approximation (1). Therefore the value of the equilibrium binding constant for XPA-ERCC1 complex formation, KXPA, should be unaffected by the stoichiometry of ERCC1-DNA binding.
# The system of Eqs. 4a, 4b and 4c yields expressions for [E], [X] and [D], which are then used to determined the fraction of bound DNA species, f, as follows:
# The observed fluorescence anisotropy, r, is then given by
# where r0 and rmax are fluorescent anisotropy values of unbound and fully bound DNA, respectively. […]
# XPA competes with single-stranded DNA for binding to ERCC1. Because XPA binds in the groove on ERCC1 (FIG. 2) that was previously implicated in DNA binding activity (Tsodikov et al., 2005), it was determined whether or not XPA competes with single-stranded DNA for binding to ERCC1. DNA binding activity was measured by monitoring fluorescence anisotropy, using single-stranded 40mer oligonucleotide labeled on the 5′ end with 6-carboxyfluorescein. […]
sequence,measurement,setting,value
KIIDTGGGFILEEE [XPA67-80],affinity for central domain of ERCC1 relative to single stranded DNA,,approximately 3 fold
same,Kd,"best fit of competition titration to Eq. 9, 50 nM DNA, 2.33 μM ERCC196-214, read-out: dissociation equilibrium constant (Kd) of the XPA-ERCC1 complex",300 nM
same,EC50 for binding of XPA67-80,"competition with 6FAM single-stranded 40mer DNA, accurate measurement precluded by quenching",in the micromolar range
same,competition with single-stranded DNA for binding to ERCC1,fluorescence anisotropy / polarization,does compete with DNA for binding to ERCC1; also recorded: competitive inhibitor
same,binding of peptide to DNA,"single-stranded 40mer, fluorescence anisotropy",does not detectably bind to DNA
